Data published in the METLIN SMRT retention time set (Domingo-Almenara et al. 2019).

Experiment: gradient 5% acetonitrile 3 min, to 50% in 2 min, to 85% in 15 min, held 3 min, 100 µL/min
Conditions: column: Zorbax Extend-C18 2.1 x 50 mm; eluents: water / acetonitrile, 0.1% formic acid
How it was run: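 Pure standards were run in mixtures of ~100 molecules by HPLC coupled to a quadrupole time-of-flight mass spectrometer. The column was a Zorbax Extend-C18 (2.1 × 50 mm, 1.8 μm) at 100 μL/min, with water and acetonitrile each containing 0.1% formic acid, in positive and negative ionization mode. Dead and dwell volumes were 40 μL and 900 μL. Retention time was taken from computationally picked adduct peaks, each manually inspected, with data collected over 3 months.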

Row | Compound | RP-LC retention time
1 | CC(C)CCNC(=O)Cn1nc2c3cc(-c4ccc(F)cc4)nn3ccn2c1=O | 876 s
2 | CCn1nc(C)cc1C(=O)Nc1nc2c(s1)CC(C)CC2 (stereo not drawn) | 935 s
3 | Cc1ccccc1-n1c(=O)c2sccc2n(Cc2nc(-c3ccc(F)c(Cl)c3)no2)c1=O | 1110 s
4 | C=CCN1C(=O)C2(c3ccccc31)c1[nH]c3ccccc3c1CCN2C(C)=O (stereo not drawn) | 836 s
5 | COc1ccc(-c2nnc(N3CCC(C(=O)NCCN(C)C)CC3)o2)cc1 | 594 s
6 | COc1ccc(S(=O)(=O)N2CCC(c3cnn(-c4cccc(C)c4)c3)CC2)cc1 | 1130 s
7 | Cc1ccc(NC(=O)C2CCCN2S(=O)(=O)c2cc3c(cc2C)NC(=O)C(C)O3)cc1Cl (stereo not drawn) | 892 s
8 | COc1ccccc1CNC(=O)CSc1ccc(-c2cccnc2)nn1 | 592 s
9 | Cc1ccn2c(Nc3ccc4c(c3)OCO4)c(-c3cc(Br)ccc3F)nc2c1 | 747 s
10 | COc1cc(C(C)=O)ccc1OCC(=O)NCCn1cnc(-c2ccc(F)cc2)cc1=O | 661 s
11 | Cc1[nH]nc(-c2cc(S(=O)(=O)NCC(C)c3ccccc3)c(C)s2)c1C (stereo not drawn) | 936 s
12 | COc1ccc(CCNC(=O)C2CCN(c3ncnc4c3oc3ccccc34)CC2)cc1OC | 683 s
13 | Cn1nc(C(=O)N2CCN(c3cc(-c4ccccc4)[nH]n3)CC2)c2ccccc21 | 805 s
14 | c1ccc2oc(SCc3cn4ccsc4n3)nc2c1 | 653 s
15 | COc1ccc(NS(=O)(=O)c2cn(C)c3ncccc23)cc1 | 740 s
16 | COC(=O)c1cccc(-c2nc(C3CC(=O)N(c4ccc(Cl)cc4)C3)no2)c1 (stereo not drawn) | 1030 s
17 | CC(=O)N1CCc2cc(N3CC(C(=O)NC4CCCC4)CC3=O)ccc21 (stereo not drawn) | 642 s
18 | O=C([C@@H]1C[C@H](F)CN1C(=O)Nc1ccccc1Cl)N1CCCCC1 | 732 s
19 | COc1cc(CC(=O)N2CCc3cc(-c4ccno4)ccc32)cc(OC)c1 | 921 s
20 | COc1cc(NC(=O)CSc2cc(N3CCN(c4ccccc4OC)CC3)ncn2)cc(OC)c1 | 957 s
21 | CC1(C)CN(C(=O)C2CC2)c2ccc(S(=O)(=O)N3CCN(c4ccccn4)CC3)cc21 | 692 s
22 | CCCN(CCC)CCNC(=O)C1CCC(=O)N(c2ccc(OC)cc2)C1c1ccc(F)cc1 (stereo not drawn) | 649 s

Row | Compound | RP-LC retention time
23 | Cc1sc(-c2cc(C(F)(F)F)[nH]n2)cc1S(=O)(=O)NC1CCCCC1 | 1030 s
24 | CCN(CC)S(=O)(=O)c1ccc2c(c1)N(CC(=O)NCc1cccc(C)c1)C(=O)C1CCCCN21 (stereo not drawn) | 686 s
25 | CCn1cc(-c2nc(CC(=O)Nc3ccccc3Cl)cs2)c2cccnc21 | 1050 s
26 | COCCc1noc(C2CN(C(=O)c3cnc(C)cn3)C2)n1 | 636 s
27 | CCCN1C(=O)c2cc(S(=O)(=O)NC(C)C)ccc2Oc2cccnc21 | 960 s
28 | Cc1ccc(NC(=O)Cn2nc(N3CCCC3)c3ccccc3c2=O)cc1Cl | 1060 s
29 | CCCCN1C(=O)C(C)(C(=O)N2CCN(c3cccc(C)c3C)CC2)Oc2cccnc21 (stereo not drawn) | 1380 s
30 | COc1ccc2c(c1)C1(CCN(C(=O)CC(C)(C)C)C1)C(=O)N2C (stereo not drawn) | 782 s
31 | COc1ccc(NC(=O)c2cnc(-c3ccc(F)cc3)nc2-c2ccncc2)cc1 | 856 s
32 | O=C([C@@H]1C[C@H](F)CN1C(=O)Cc1ccccc1F)N1CCCCC1 | 684 s
33 | COc1ccc(C2(C(=O)N3CC(c4ncc(C)n4Cc4cccnc4)C3)CC2)cc1 | 593 s
34 | Cc1ccc(NC(=O)C2CCCN(S(=O)(=O)c3cc(-c4noc(C)n4)cs3)C2)c(C)c1 (stereo not drawn) | 983 s
35 | Cn1c(=O)c(N2CCC(NC(=O)NCc3cccc(F)c3)CC2)nc2ccccc21 | 816 s
36 | O=S(=O)(c1cccc2nsnc12)N1CCCn2nc(-c3cccnc3)cc2C1 | 627 s
37 | CC(C)NC(=O)C1CCCN(c2nc3ncn(CC(=O)NCc4cccs4)c(=O)c3s2)C1 (stereo not drawn) | 660 s
38 | O=C(CCCc1nnc2c(=O)n(-c3ccc(F)cc3)ccn12)NCCc1c[nH]c2ccccc12 | 699 s
39 | CC1Cc2ccccc2N1C(=O)CCC(=O)N1CCCN(c2cc(=O)n(C)c(=O)n2C)CC1 (stereo not drawn) | 677 s
40 | CC1=NS(=O)(=O)N(C)C=C1C(=O)OCc1cc(C)ccc1C | 957 s
41 | COCCC1CCN(C(=O)c2cc(-c3ccccc3)n[nH]2)CC1 | 758 s
42 | CCC(C)NC(=O)c1nn(-c2ccc(OC)cc2)c(OC)cc1=O (stereo not drawn) | 692 s
43 | CCSc1nc(-c2ccccc2)c(NC(=O)c2ccc(S(=O)(=O)N(C)C)cc2)s1 | 1000 s
44 | O=C(c1ccccc1Br)N1CCN(Cc2nc(-c3ccccc3)cs2)CC1 | 773 s

Row | Compound | RP-LC retention time
45 | CC(C)Cc1cc(-c2nn3c(CSc4ccccc4)nnc3s2)n[nH]1 | 948 s
46 | Cc1cccc(NS(=O)(=O)c2ccc(-c3c(C)noc3C)cc2)c1C | 997 s
47 | c1coc(CN2CC(Oc3ccc(-c4noc(-c5ccncc5)n4)cc3)C2)c1 | 665 s
48 | Cn1cnc(S(=O)(=O)N2CC[C@@H]3COCCN(Cc4ccccc4)[C@@H]3C2)c1 | 586 s
49 | Fc1ccc(-c2noc(Cc3nnc(-c4cccc(Br)c4)o3)n2)cc1 | 1120 s
50 | CCCn1cc(S(=O)(=O)NCc2ccccc2C(F)(F)F)c2cccnc21 | 988 s
51 | CCOc1nc2ccccc2nc1N1CCCC(C(=O)NCc2cccnc2)C1 (stereo not drawn) | 684 s
52 | CCOC(=O)C1=C(N)Oc2c(c(=O)[nH]c3ccc(C)cc23)C1c1ccc(OC)cc1 (stereo not drawn) | 881 s
53 | CC(OC(=O)Nc1cccc(Cl)c1)C(=O)O (stereo not drawn) | 809 s
54 | CCOC(=O)c1nc(Nc2ccc(S(=O)(=O)Nc3nc(C)cc(C)n3)cc2)c2ccccc2n1 | 692 s
55 | CCCCCNC(=O)c1ccc(Oc2nccnc2N2CCSCC2)cc1 | 1030 s
56 | COCCn1cc(CCNC(=O)Nc2cc(C)ccc2C)c2cccnc21 | 752 s
57 | CC1(C(=O)NCc2ccc(Cl)cc2)CCCCC(=O)N1 (stereo not drawn) | 704 s
58 | NC(=O)c1oc2ccccc2c1NC(=O)C(=O)NCc1ccc2c(c1)OCO2 | 758 s
59 | O=c1c(S(=O)(=O)N2CCCC2)cccn1Cc1cccc(Cl)c1 | 902 s
60 | Cc1nnc(NC(=O)Cc2csc(NC(=O)C3CCCC3)n2)s1 | 677 s
61 | COc1ccc(Cl)cc1NC(=O)CSc1ccc(-n2ccnc2)nn1 | 613 s
62 | C=CCN1C(=O)COc2ccc(-c3csc(NC(=O)C4CCCCC4)n3)cc21 | 1060 s
63 | CCC(NC(=O)C1CCN(c2cnc3nccnc3c2)CC1)c1cccs1 (stereo not drawn) | 702 s
64 | COCCCNC(=O)C1CN(C(=O)c2ccccc2)CC12CCCCC2 (stereo not drawn) | 571 s
65 | CCN1C(=O)C2(CCN(C(=O)C3CC3)CC2)c2ccccc21 | 779 s
66 | COc1ccc(NC(=O)c2cn(-c3cc(N4CCC(C)CC4)ncn3)cn2)c(OC)c1 | 1150 s

Row | Compound | RP-LC retention time
67 | O=C(C1CC(=O)N(c2ccccc2)C1)N1CCN(c2ccc(-c3noc(C4CCC4)n3)cc2)CC1 (stereo not drawn) | 970 s
68 | COc1ccc(-c2csc(NC(=O)CCc3c(C)[nH]c(=O)[nH]c3=O)n2)cc1 | 646 s
69 | O=C(Nc1ccccc1)N1CCN(c2cnn3c(C4CC4)nnc3c2)CC1 | 625 s
70 | O=C(NCCc1csc(-c2ccc(Cl)cc2)n1)C(=O)Nc1ccc2c(c1)OCCO2 | 1030 s
71 | CCn1cc(CCNC(=O)C(C)C)c2cccnc21 | 612 s
72 | Cn1c(CNC(=O)CSc2nnc(-c3ccc4c(c3)OCO4)o2)nc2ccccc21 | 1020 s
73 | O=C(NC(c1ccccc1)c1ccccc1)N1CCN(CC(F)(F)F)CC1 | 886 s
74 | O=C(CN1CCC(c2nc(-c3ccc(F)cc3)no2)CC1)NCc1ccc2c(c1)OCO2 | 720 s
75 | COc1ccccc1CCNC(=O)Cc1csc(NC(=O)c2ccco2)n1 | 700 s
76 | Cn1c(=O)n(C)c2cc(S(=O)(=O)C3CCCCC3)c(NC(=O)C3CC3)cc21 | 814 s
77 | CC1=C(c2ccc(F)cc2)S(=O)(=O)N=C1N1CCCN(C(=O)c2cccnc2)CC1 | 713 s
78 | CC(=O)NCc1nc(-c2cccc(-c3csc(C)n3)c2)no1 | 704 s
79 | COc1ccc(CN(C)Cc2cc(=O)n3ccc(C)cc3n2)cc1 | 608 s
80 | O=C(CCc1c(-c2ccccc2)nc2ccccn12)Nc1ccc(Br)cc1F | 722 s
81 | CC(=O)c1ccc(NC(=O)CN2C(=O)CCn3nc(-c4cn(C)c5ccccc45)cc32)cc1 | 791 s
82 | CCCCN(C)C(=O)CCC(=O)Nc1ccc2nc(N3CCN(C)CC3)cc(C)c2c1 | 546 s
83 | COC(=O)c1ccc2c(=O)n(CCc3ccccc3)c(N3CCC(C(N)=O)CC3)nc2c1 | 774 s
84 | COc1ccc(Cl)cc1NC(=O)CCc1c(C)nn(-c2cc(N(C)C)ncn2)c1C | 940 s
85 | CC(C)c1ccc(-c2ccnc3c(C(=O)NCc4ccco4)cnn23)cc1 | 1090 s
86 | COc1cccc(-c2noc(C3CCCN3C(=O)Nc3ccc4c(c3)OCO4)n2)c1 (stereo not drawn) | 896 s
87 | O=C(NCc1ccco1)C1CCN(Cc2cc3ccccc3n2Cc2cccc(Cl)c2)CC1 | 853 s
88 | CCOC(=O)Cc1ccc(NC(=O)NC2CCN(c3cc(C)cc(C)c3)C2=O)cc1 (stereo not drawn) | 888 s
